Columns and labels:
[1] = system: LCMV; type: in vivo, C57BL/6 mice; settings: 2×10^4 pfu LCMV, serotonin 5 mg/mouse/day
[2] = Serotonin treatment without infection, effect on liver

With `NCCc1c[nH]c2ccc(O)cc12` [serotonin] the “time of maximum ALT level after infection” value [1] was 10 days, the “replicating virus in liver (viral titers)” value ([1]; eight days after infection, vehicle treated mice cleared LCMV by day 8) was “high levels of replicating virus” and the “ALT levels in the serum” value ([1]; maximum at day 10 after infection) was “more than 1000 U/I”. The “effect on the liver without infection” value [2] was “harmless to the liver”.
